Laboratory results as given in ChEMBL document CHEMBL1132533, “Synthesis and evaluation of hydroxyproline-derived isoprenyltransferase inhibitors” (Bioorg Med Chem Lett, 1999).

Experiments:
[1] = target: Geranylgeranyl transferase type I (Bos taurus, UniProt P29702+Q5EAD5); experiment: In vitro inhibitory activity against Geranylgeranyl transferase in the geranylgeranylation of H-ras-CAIL protein; assay type: protein-complex assay
[2] = target: Protein farnesyltransferase (Bos taurus, UniProt P29702+P49355); experiment: Inhibitory concentration was evaluated against Farnesyltransferase in the farnesylation of H-ras protein; assay type: protein-complex assay
[3] = target: Protein farnesyltransferase (Mus musculus, UniProt Q61239+Q8K2I1); experiment: Inhibitory concentration against Farnesyltransferase for Farnesylation of H-ras protein InNIH 3T3 cells transformed with activated H-ras; assay type: cell-based, NIH3T3
[4] = In vitro inhibitory activity against Geranylgeranyl transferase in the geranylgeranylation of Rap1A protein protein in NIH 3T3 cells transformed with activated H-ras; assay type: cell-based, Mus musculus; conditions: nih3t3

Row | Compound | IC50 [1] [nM] | IC50 [2] [nM] | IC50 [3] [nM] | IC50 [4] [nM]
1 | CSCC[C@@H](NC(=O)[C@H]1C[C@H](Oc2ccccc2)CN1C/C=C/[C@@H](N)CS)C(=O)O | 11000 | 3300 |  | 
2 | COC(=O)[C@@H](CCSC)NC(=O)[C@@H]1C[C@H](Oc2ccccc2)CN1C/C=C/[C@@H](N)CS |  |  | 5300 | 21900
3 | COC(=O)[C@H](CCSC)NC(=O)[C@@H]1C[C@H](Oc2ccc(C(F)(F)F)cc2)CN1C/C=C/[C@@H](N)CS |  |  | > 50000 | > 50000
4 | COC(=O)[C@H](CCSC)NC(=O)[C@@H]1C[C@H](Oc2ccc(C(C)C)cc2)CN1C/C=C/[C@@H](N)CS |  |  | 3000 | 390
5 | COC(=O)[C@H](CCSC)NC(=O)[C@@H]1C[C@H](Oc2ccccc2)CN1CCCC[C@@H](N)CS |  |  | 350 | > 50000
6 | COC(=O)[C@H](CCSC)NC(=O)[C@@H]1C[C@H](Oc2ccccc2)CN1C(=O)CCC[C@@H](N)CS |  |  | 2000 | > 50000
7 | CSCC[C@H](NC(=O)[C@@H]1C[C@H](Oc2ccc(C(F)(F)F)cc2)CN1C/C=C/[C@@H](N)CS)C(=O)O | 110 | 110 |  | 
8 | CSCC[C@H](NC(=O)[C@@H]1C[C@H](Oc2ccccc2)CN1CCCC[C@@H](N)CS)C(=O)O | 3300 | 20 |  | 
9 | COC(=O)[C@H](CCSC)NC(=O)[C@@H]1C[C@H](Oc2ccccc2)CN1C[C@H](/C=C/[C@@H](N)CS)C(C)C |  |  | 40 | > 25000
10 | COC(=O)[C@H](CCSC)NC(=O)[C@@H]1C[C@H](Oc2ccc(OC)c(OC)c2)CN1C/C=C/[C@@H](N)CS |  |  | > 50000 | > 50000
11 | CCCCc1ccc(O[C@H]2C[C@@H](C(=O)N[C@@H](CCSC)C(=O)OC)N(C/C=C/[C@@H](N)CS)C2)cc1 |  |  | 3200 | 3100
12 | CSCC[C@H](NC(=O)[C@@H]1C[C@H](Oc2ccccc2)CN1C(=O)[C@H](/C=C/[C@@H](N)CS)C(C)C)C(=O)O | 11 | 18 |  | 
13 | CCCc1ccccc1O[C@H]1C[C@@H](C(=O)N[C@@H](CCSC)C(=O)O)N(C/C=C/[C@@H](N)CS)C1 | 170 | 210 |  | 
14 | COC(=O)[C@H](CCSC)NC(=O)[C@@H]1C[C@H](Oc2ccccc2)CN1C(=O)[C@H](/C=C/[C@@H](N)CS)C(C)C |  |  | 840 | > 50000
15 | CSCC[C@H](NC(=O)[C@@H]1C[C@H](Oc2ccccc2)CN1CC/C=C/[C@@H](N)CS)C(=O)O | 570 | 20 |  | 
16 | CCCCc1ccc(O[C@H]2C[C@@H](C(=O)N[C@@H](CCSC)C(=O)O)N(C/C=C/[C@@H](N)CS)C2)cc1 | 180 | 87 |  | 
17 | CCCc1ccccc1O[C@H]1C[C@H](C(=O)N[C@H](CCSC)C(=O)OC)N(C/C=C/[C@@H](N)CS)C1 |  |  | > 10000 | > 10000

Row | Compound | IC50 [1] [nM] | IC50 [2] [nM] | IC50 [3] [nM] | IC50 [4] [nM]
18 | COC(=O)[C@H](CCSC)NC(=O)[C@@H]1C[C@H](Oc2cccc3ccccc23)CN1C/C=C/C(N)CS (some centres not stated) |  |  | 22500 | > 50000
19 | COC(=O)[C@H](CCSC)NC(=O)[C@@H]1C[C@H](Oc2cccc3c2CCCC3)CN1C/C=C/C(N)CS (some centres not stated) |  |  | > 10000 | 3100
20 | CSCC[C@H](NC(=O)[C@@H]1C[C@H](Oc2cccc3ccccc23)CN1C/C=C/C(N)CS)C(=O)O (some centres not stated) | 200 | 100 |  | 
21 | COC(=O)[C@H](CCSC)NC(=O)[C@H]1C[C@H](Oc2ccccc2)CN1C/C=C/[C@@H](N)CS |  |  | > 50000 | 
22 | COC(=O)[C@H](CCSC)NC(=O)[C@@H]1C[C@@H](Oc2ccccc2)CN1C/C=C/[C@@H](N)CS |  |  | > 50000 | > 50000
23 | CSCC[C@H](NC(=O)[C@@H]1C[C@H](Oc2ccc(-c3ccccc3)cc2)CN1C/C=C/[C@@H](N)CS)C(=O)O | 250 | 35 |  | 
24 | COC(=O)[C@H](CCSC)NC(=O)[C@@H]1C[C@H](Oc2ccccc2)CN1CC/C=C/[C@@H](N)CS |  |  | 490 | > 50000
25 | CSCC[C@H](NC(=O)[C@H](/C=C\[C@@H](/C=C/[C@@H](N)CS)C(C)C)Cc1ccccc1)C(=O)O | 1 | 26 | 370 | > 100000
26 | CSCC[C@H](NC(=O)[C@@H]1C[C@H](Oc2cccc3c2CCCC3)CN1C/C=C/[C@@H](N)CS)C(=O)O | 89 | 47 |  | 
27 | CSCC[C@H](NC(=O)[C@@H]1C[C@@H](Oc2ccccc2)CN1C/C=C/[C@@H](N)CS)C(=O)O | 8000 | 4000 |  | 
28 | CSCC[C@H](NC(=O)[C@@H]1C[C@H](Oc2ccccc2)CN1C(=O)CCC[C@@H](N)CS)C(=O)O | 100 | 2 |  | 
29 | COC(=O)[C@H](CCSC)NC(=O)[C@@H]1C[C@H](Oc2ccc(-c3ccccc3)cc2)CN1C/C=C/[C@@H](N)CS |  |  | 3300 | 3200
30 | CSCC[C@H](NC(=O)[C@@H]1C[C@H](Oc2ccc(C(C)C)cc2)CN1C/C=C/[C@@H](N)CS)C(=O)O | 210 | 82 |  | 
31 | CSCC[C@H](NC(=O)[C@@H]1C[C@H](Oc2ccccc2)CN1C[C@H](/C=C/[C@@H](N)CS)C(C)C)C(=O)O | 150 | 17 |  | 
32 | CSCCC(NC(=O)[C@@H]1C[C@H](Oc2ccccc2)CN1C/C=C/[C@@H](N)CS)C(=O)O (single isomer, unassigned) | 53 | 57 |  | 
33 | COc1ccc(O[C@H]2CC(C(=O)NC(CCSC)C(=O)O)N(C/C=C/[C@@H](N)CS)C2)cc1OC (single isomer, unassigned) | 67000 | 450 |  | 
